Source: paper PMC8037569, “Neuroprotective Effect of Aurantio-Obtusin, a Putative Vasopressin V1A Receptor Antagonist, on Transient Forebrain Ischemia Mice Model” (International Journal of Molecular Sciences, 2021)
Where two headings read alike, the source gives them in different places.

What was measured:
[1] = biological target: angiotensin-converting enzyme (ACE); parameters: method as in PMID 18803227; details: read-out: Inhibition of ACE activity, IC50; cited from earlier work
[2] = tested on: vasopressin receptors; parameters: method as in PMID 32280914; details: at the tested concentrations; cited from earlier work
[3] = tested on: dopamine receptors; parameters: method as in PMID 32280914; details: at the tested concentrations; cited from earlier work
[4] = biological target: T1, hNK1R (Homo sapiens, UniProt P25103); assay: GPCR functional assay: intracellular Ca2+ mobilization in U373MG cells; assay type: cell-based; details: for % Inhibition (antagonist effect) of control agonist response, NK1 (h) / % Stimulation (agonist effect) of control agonist response, NK1 (h): 100 µM test compound; for % Inhibition (antagonist effect) of control agonist response, NK1 (h): control response to 1 nM [Sar9, Met(O2)11]-SP; for % Stimulation (agonist effect) of control agonist response, NK1 (h): control response to 30 nM [Sar9, Met(O2)11]-SP; for inhibition at 100 µM: U373 MG, read-out: % Inhibition (antagonist effect) of control agonist response, NK1 (h)
T1 construct: Human endogenous (U373MG cells); host or cells: U373MG
T1 sequence (P25103 whole entry): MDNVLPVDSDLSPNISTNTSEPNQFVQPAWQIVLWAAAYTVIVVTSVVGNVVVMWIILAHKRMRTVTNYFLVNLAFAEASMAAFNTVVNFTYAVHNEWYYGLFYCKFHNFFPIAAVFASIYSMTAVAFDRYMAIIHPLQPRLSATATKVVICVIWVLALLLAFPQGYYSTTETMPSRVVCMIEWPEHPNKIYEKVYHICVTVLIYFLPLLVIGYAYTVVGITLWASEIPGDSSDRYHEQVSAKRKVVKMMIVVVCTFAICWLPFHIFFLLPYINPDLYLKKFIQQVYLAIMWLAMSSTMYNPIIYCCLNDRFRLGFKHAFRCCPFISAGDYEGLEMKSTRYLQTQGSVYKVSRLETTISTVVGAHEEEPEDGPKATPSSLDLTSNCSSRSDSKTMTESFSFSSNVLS

[5] = biological target: T2, hD3 receptor (Homo sapiens, UniProt P35462); assay: GPCR functional assay: cAMP modulation by HTRF in transfected CHO cells; assay type: cell-based; details: for % Stimulation (agonist effect) of control agonist response, D3 (h): 100 µM test compound, control response to 300 nM dopamine; for inhibition at 100 µM: CHO, read-out: % Inhibition (antagonist effect) of control agonist response, D3 (h)
T2 construct: host or cells: CHO
T2 sequence (P35462 whole entry): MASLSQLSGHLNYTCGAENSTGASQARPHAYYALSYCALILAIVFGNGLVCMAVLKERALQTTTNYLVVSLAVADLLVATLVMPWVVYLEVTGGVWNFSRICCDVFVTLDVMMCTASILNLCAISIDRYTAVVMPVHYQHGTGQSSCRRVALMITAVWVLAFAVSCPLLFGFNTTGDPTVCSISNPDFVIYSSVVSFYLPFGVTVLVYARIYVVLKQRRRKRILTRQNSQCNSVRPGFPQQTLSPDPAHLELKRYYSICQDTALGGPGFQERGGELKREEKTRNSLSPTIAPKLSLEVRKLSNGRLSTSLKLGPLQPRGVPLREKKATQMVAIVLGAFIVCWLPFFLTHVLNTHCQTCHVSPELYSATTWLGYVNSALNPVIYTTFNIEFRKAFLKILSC

[6] = biological target: T3, h5-HT1AR (Homo sapiens, UniProt P08908); assay: GPCR functional assay: intracellular Ca2+ mobilization in Ba/F3 cells; assay type: cell-based; details: for % Inhibition (antagonist effect) of control agonist response, 5-HT1A (h) / % Stimulation (agonist effect) of control agonist response, 5-HT1A (h): 100 µM test compound; for % Inhibition (antagonist effect) of control agonist response, 5-HT1A (h): control response to 30 nM serotonin; for % Stimulation (agonist effect) of control agonist response, 5-HT1A (h): control response to serotonin (2.5 μM); for inhibition at 100 µM: BaF3, read-out: % Inhibition (antagonist effect) of control agonist response, 5-HT1A (h)
T3 construct: host or cells: Ba/F3 (murine pro-B)
T3 sequence (P08908 1-422): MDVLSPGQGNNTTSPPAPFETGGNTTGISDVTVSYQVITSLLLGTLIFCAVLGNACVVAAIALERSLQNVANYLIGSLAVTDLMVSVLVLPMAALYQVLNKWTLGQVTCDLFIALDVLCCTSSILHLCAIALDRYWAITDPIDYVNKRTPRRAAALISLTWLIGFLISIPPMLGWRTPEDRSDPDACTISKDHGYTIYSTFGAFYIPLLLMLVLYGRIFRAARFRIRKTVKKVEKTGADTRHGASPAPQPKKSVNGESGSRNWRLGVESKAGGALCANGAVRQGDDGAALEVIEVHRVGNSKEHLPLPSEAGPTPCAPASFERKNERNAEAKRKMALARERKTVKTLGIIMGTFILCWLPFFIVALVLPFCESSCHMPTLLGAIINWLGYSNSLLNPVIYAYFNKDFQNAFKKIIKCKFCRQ

[7] = biological target: T4, hV1AR (Homo sapiens, UniProt P37288); assay: GPCR functional assay: intracellular Ca2+ mobilization in transfected CHO cells; assay type: cell-based; details: for % Stimulation (agonist effect) of control agonist response, V1A (h): control response to 1 μM AVP
T4 construct: host or cells: CHO
T4 sequence (P37288 whole entry): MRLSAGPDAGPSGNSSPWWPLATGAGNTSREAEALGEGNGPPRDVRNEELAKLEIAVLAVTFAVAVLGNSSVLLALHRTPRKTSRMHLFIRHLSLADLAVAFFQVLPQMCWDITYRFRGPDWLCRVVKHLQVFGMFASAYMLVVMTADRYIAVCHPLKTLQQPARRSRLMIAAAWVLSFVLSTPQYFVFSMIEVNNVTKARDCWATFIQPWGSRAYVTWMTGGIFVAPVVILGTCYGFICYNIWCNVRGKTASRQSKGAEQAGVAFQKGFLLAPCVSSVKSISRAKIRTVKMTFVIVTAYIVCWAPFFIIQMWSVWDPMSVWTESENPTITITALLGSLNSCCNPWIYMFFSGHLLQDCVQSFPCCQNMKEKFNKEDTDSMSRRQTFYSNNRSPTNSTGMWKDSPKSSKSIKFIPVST

[8] = 100 µM test compound, control response to 10 nM AVP
[9] = CHO, read-out: % Inhibition (antagonist effect) of control agonist response, V1A (h)

SMILES: COc1c(O[C@@H]2O[C@H](CO)[C@@H](O)[C@H](O)[C@H]2O)cc2c(c1O)C(=O)c1c(cc(C)c(O)c1OC)C2=O [gluco-aurantio-obtusin]
- IC50 [1]: 30.24 ± 0.2 µM

SMILES: O=C1c2cccc(O)c2C(=O)c2c(O)cc(CO)cc21 [aloe-emodin]
- Activity on vasopressin receptors [2]: remained inactive
- Activity on dopamine receptors [3]: remained inactive

SMILES: Cc1cc2c(c(O)c1O)C(=O)c1c(O)cc(O)cc1C2=O [7-hydroxyemodin]
- Activity on vasopressin receptors [2]: showed activity
- Activity on dopamine receptors [3]: showed activity

SMILES: FC(F)(F)c1cc(CO[C@H]2CCCN[C@H]2c2ccccc2)cc(C(F)(F)F)c1 [L 733,060, reference compound]
- IC50 ([4]; standard antagonist, read-out: Antagonist effect IC50, NK1 (h)): 0.58 nM

SMILES: Cc1cc(O)c2c(c1)C(=O)c1cc(O)cc(O)c1C2=O [emodin]
- Activity on vasopressin receptors [2]: showed activity
- Activity on dopamine receptors [3]: showed activity

SMILES: Cc1cc(=O)c2c(O)c3c(OC4OC(CO)C(O)C(O)C4O)cc(O)cc3cc2o1 (stereo not drawn) [Cassiaside]
- % Stimulation (agonist effect) of control agonist response, D3 (h) [5]: 14.75 ± 1.20%
- inhibition at 100 µM [5]: -5.05%
- % Inhibition (antagonist effect) of control agonist response, NK1 (h) [4]: negligible
- % Stimulation (agonist effect) of control agonist response, NK1 (h) [4]: −1.70 ± 0.14%
- inhibition at 100 µM [4]: 20.5%
- % Inhibition (antagonist effect) of control agonist response, 5-HT1A (h) [6]: negligible
- % Stimulation (agonist effect) of control agonist response, 5-HT1A (h) [6]: 1.75 ± 0.07%
- inhibition at 100 µM [6]: -13.4%
- % Inhibition (antagonist effect) of control agonist response, V1A (h) [7, 8]: negligible
- % Stimulation (agonist effect) of control agonist response, V1A (h) ([7]; 100 µM test compound): 1.40 ± 2.83%
- inhibition at 100 µM [7, 9]: -9.9%

SMILES: COc1c(O)c(C)cc2c1C(=O)c1c(O)cc(O)cc1C2=O [2-Hydroxyemodin 1-methylether]
- inhibition at 12.5 µM ([7]; CHO, 12.5 µM, control response to 10 nM AVP, read-out: V1AR antagonist effect, % inhibition): 23.1%
- inhibition at 25 µM ([7]; CHO, 25 µM, control response to 10 nM AVP, read-out: V1AR antagonist effect, % inhibition): 26.5%
- inhibition at 50 µM ([7]; CHO, 50 µM, control response to 10 nM AVP, read-out: V1AR antagonist effect, % inhibition): 36.6%
- inhibition at 100 µM ([7]; CHO, 100 µM test compound, control response to 10 nM AVP, read-out: % Inhibition (antagonist effect) of control agonist response, V1A (h) (converted)): 42.3%

SMILES: COc1cc(OC2OC(COC3OC(CO)C(O)C(O)C3O)C(O)C(O)C2O)c2c(O)c3c(=O)cc(C)oc3cc2c1 (stereo not drawn) [Rubrofusarin Gentiobioside, Rubrofusarin 6-O-β-gentiobioside]
- % Stimulation (agonist effect) of control agonist response, D3 (h) [5]: 7.05 ± 1.63%
- inhibition at 100 µM [5]: -0.05%
- % Inhibition (antagonist effect) of control agonist response, NK1 (h) [4]: negligible
- % Stimulation (agonist effect) of control agonist response, NK1 (h) [4]: −1.40 ± 0.42%
- inhibition at 100 µM [4]: 3.9%
- % Inhibition (antagonist effect) of control agonist response, 5-HT1A (h) [6]: negligible
- % Stimulation (agonist effect) of control agonist response, 5-HT1A (h) [6]: −0.30 ± 0.28%
- inhibition at 100 µM [6]: 4.25%
- % Inhibition (antagonist effect) of control agonist response, V1A (h) [7, 8]: negligible
- % Stimulation (agonist effect) of control agonist response, V1A (h) ([7]; 100 µM test compound): −4.40 ± 1.41%
- inhibition at 100 µM [7, 9]: -13.6%

SMILES: COc1cc(O)cc2c1C(=O)c1c(O)cc(C)cc1C2=O [questin]
- Activity on vasopressin receptors [2]: remained inactive
- Activity on dopamine receptors [3]: remained inactive
